We go through eight molecules from PMC5843810, “18th European Symposium on Radiopharmacy and Radiopharmaceuticals” (EJNMMI Radiopharmacy and Chemistry, 2016).

Like-named read-outs stand apart in the source and are kept apart here. Where a SMILES comes first, the peptide text is derived from it. Bridges are numbered along the chain shown (N, C = ends). [ ]: non-standard residue; d: D form. Ahx = NCCCCCC(=O)O; βAla = NCCC(=O)O

For data set [1] the following is noted: healthy Balb/c mice n=5, i.v., 1h p.i.
Protocol: The biodistribution of such prepared 68Ga-PSMA-11 was investigated in healthy Balb/c mice (n=5) after intravenous injection of 0.1mL (38 MBq/mL) (at 15, 30, 60 and 120min).
Data set [2] concerns the target T1, MC1R (Mus musculus, UniProt Q01727).
T1 construct: endogenous in cells; host or cells: B16/F10
Kind of data set: MC1R binding affinity in B16/F10 melanoma cells. The settings on record: unlabelled peptides.

Data set [3] deals with GRP receptors (Homo sapiens, UniProt P30550). Briefly: GRP receptor affinity of PD-410. In kind it is binding. The text has this:
Introduction: The Gastrin Releasing Peptide (GRP) receptor has high expression on prostate cancer cells. Consequently, bombesin, a 14-amino acid peptide that binds with high affinity to GRP receptors, has been widely studied for the development of radiopeptides for application in prostate cancer imaging. To overcome some limitations of radiolabelled peptides, we developed a small molecule non-peptidic radiotracer targeting GRP receptors. […] The aim of the present study is to develop a non-peptidic fluorine-18 PET radioligand with antagonist properties, for visualization of GRP receptors.

Data set [4] has as its system human breast cancer cell lines. Set-up: method as in not given. Particulars: ref not given; cited from earlier work. The text has this:
Introduction: Substituted benzotiazoles (BT) are a class of compounds with high affinity and selectivity to aryl hydrocarbon receptor (AhR), a receptor often expressed in breast cancer tissue.

For data set [5], the target named is T2, HDAC6 (Rattus norvegicus, UniProt A0A8I6GM68).
T2 construct: wild-type Wistar rat brain tissue; from tissue; host or cells: wild-type Wistar rat brain slices
Briefly: Autoradiography on Wistar rat brain tissue. It is filed as binding. The settings on record: rat brain slices, 100 μM. The protocol:
(§1) The biodistribution was studied in NMRI-mice at 2, 10, 30 and 60 min (n = 3/time point) post injection (p.i.). Organs and tissues were harvested and radioactivity was counted in a gamma-counter. […] Slices were incubated with 18.5 MBq/400μL (brain) or 18.5 MBq/250 μL (tumor) of tracer with/without 100 μM of cold authentic reference compound (KB631) or non-structural related pan-HDAC inhibitor Suberoylanilide hydroxamic acid (SAHA).

Data set [6] deals with T3, HDAC6 (Homo sapiens, UniProt Q9UBN7).
T3 construct: wild-type Wistar rat brain tissue and PC3/LNCaP prostate tumor slices; from tissue; host or cells: PC3 and LNCaP prostate tumour slices (xenografts)
T3 sequence (Q9UBN7 1-1215): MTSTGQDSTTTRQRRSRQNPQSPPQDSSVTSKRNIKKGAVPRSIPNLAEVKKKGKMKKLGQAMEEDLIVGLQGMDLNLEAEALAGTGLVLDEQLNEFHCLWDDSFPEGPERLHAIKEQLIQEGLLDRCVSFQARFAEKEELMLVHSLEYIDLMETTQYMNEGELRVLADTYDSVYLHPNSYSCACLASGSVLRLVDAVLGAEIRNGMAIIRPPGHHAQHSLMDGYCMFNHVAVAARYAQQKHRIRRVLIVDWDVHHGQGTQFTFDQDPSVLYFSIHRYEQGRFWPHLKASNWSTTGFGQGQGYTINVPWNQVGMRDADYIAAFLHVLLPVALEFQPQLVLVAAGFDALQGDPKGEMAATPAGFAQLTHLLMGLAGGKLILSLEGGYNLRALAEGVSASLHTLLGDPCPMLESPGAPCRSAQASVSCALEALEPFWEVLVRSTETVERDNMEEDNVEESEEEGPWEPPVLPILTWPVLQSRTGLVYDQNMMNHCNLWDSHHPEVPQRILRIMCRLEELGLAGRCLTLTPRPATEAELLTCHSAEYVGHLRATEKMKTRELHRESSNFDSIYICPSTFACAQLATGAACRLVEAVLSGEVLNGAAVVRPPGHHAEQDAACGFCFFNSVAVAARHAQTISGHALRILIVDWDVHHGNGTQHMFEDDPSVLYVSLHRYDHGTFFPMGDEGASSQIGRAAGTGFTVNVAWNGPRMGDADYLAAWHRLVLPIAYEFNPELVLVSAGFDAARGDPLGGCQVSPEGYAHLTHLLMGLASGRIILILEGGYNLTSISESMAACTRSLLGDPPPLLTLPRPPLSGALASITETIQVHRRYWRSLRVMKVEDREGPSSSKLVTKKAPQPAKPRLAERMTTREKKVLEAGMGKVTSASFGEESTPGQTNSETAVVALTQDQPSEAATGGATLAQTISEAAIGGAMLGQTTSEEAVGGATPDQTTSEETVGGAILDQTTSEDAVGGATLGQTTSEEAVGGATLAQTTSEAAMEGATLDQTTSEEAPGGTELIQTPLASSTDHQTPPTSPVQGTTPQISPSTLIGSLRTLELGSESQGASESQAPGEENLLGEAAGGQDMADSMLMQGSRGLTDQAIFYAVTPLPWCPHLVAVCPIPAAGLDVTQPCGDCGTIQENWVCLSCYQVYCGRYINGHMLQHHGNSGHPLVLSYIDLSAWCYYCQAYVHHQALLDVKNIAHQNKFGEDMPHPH
Briefly: Autoradiography on PC3/LNCaP prostate tumor slices. Particulars: 100 μM. In kind it is binding. The procedure:
as §1

Data set [7] is described as follows: Plasma protein binding (acetonitrile precipitation, radioTLC). In kind it is in vitro ADME, mice. Particulars: mouse plasma. The procedure: (§2) Material and methods: [^18F]Amylovis® was synthesized by nucleophilic substitution of the tosyl group of the precursor. Thirty five healthy male Balb/C mice of 10-12 weeks were divided into […] of 5 animals each and injected with similar doses of [^18F]Amylovis® through a lateral tail vein. Blood samples were collected and the animals were sacrificed at 5, 15, 30, 45, 70 and 180 minutes. Organs of interest were removed and washed with saline. Radioactivity of blood, plasma, urine, faeces, brain, cerebellum, heart, liver, stomach, spleen, bowel, colon, left kidney, muscle, bone and tail was measured in a well counter. To assess protein binding, plasma samples were diluted with acetonitrile and centrifuged at 4000 g. Pellets of proteins and supernatants were separated and their radioactivity measured in a well counter. RadioTLC analysis of plasma were performed for the same purpose in silicagel 60 and mobile phase of acetonitrile/water (95/5). 20μL of each supernatant was analysed by HPLC-RP using a C18 column and acetonitrile/water (75/25) as mobile phase to identify plasma metabolites. Pharmacokinetic parameters (AUC, t1/2, Cmax, Cl, Vss) were calculated using non-compartmental analysis (NCA). Dynamic PET/CT images of healthy and transgenic APPSwe/PS1dE9 mice were acquired for 2.5 h after i.v. administration. […]

Data set [8] is described as follows: Biodistribution and pharmacokinetics in healthy Balb/C mice. In kind it is in vivo. The procedure: as §2
Data set [9] can be described thus: Extended single dose toxicity study in Sprague-Dawley rats. It is filed as in vivo.
The procedure of data set [10]: Methods: Labelling was carried out in a remote controlled synthesis unit under clean room conditions. Quality control included TLC, HPLC, GC, pH control, Ge-breakthrough, half-life, endotoxin content, and control of sterility. Storage stability after 4 h was studied and dose estimations based on animal data were carried out using OLINDA. Sprague-Dawley rats were used for an extended single dose toxicity study. The phase I clinical study included 9 patients with hepatocellular carcinoma (HCC). Static scans at 5, 30, and 60 min p.i. including 5 bed positions each were performed using the Discovery 690 PET/CT. Blood was sampled 30 and 60 min p.i. and urine 60 min p.i. and used for stability studies via HPLC.

The nature of data set [11]: PET/CT imaging in nude mice bearing U87MG xenograft tumor. It is filed as in vivo. Particulars: mouse, 90 min post injection. The procedure:
Materials and methods: The PET imaging properties of [^68Ga]FSC(succ-RGD)3 were studied in nude mice bearing M21 human melanoma xenografts and human glioblastoma U87MG xenograft tumor. A parallel PET imaging of ^68GaNODAGA-RGD in same mouse bearing U87MG xenograft tumor was performed as a comparison.

The subject of data set [12] is U87MG tumor. The procedure: Materials and Methods: The radiolabelling was performed using an automated system with inline quality control. Fraction of 68GaCl3 eluate from an organic matrix based 68Ge/68Ga generator, 400-700 MBq in 2 mL, was used to label NOTA/NODAGA/DOTA-derivatised cRGD peptides. Elution, labeling and purification procedures were performed in 20-25 min. The biodistribution was tested in tumor bearing animal models (U87MG, Walker 256, B21 and AR42J). The affinity of cyclo-RGD peptides to tumor cell-surface receptors was determined by real-time quantification using Ligand Tracer.

In data set [13] the test system is AR42J and U87MG. Briefly: Real-time binding and retention on tumor cells (Ligand Tracer). It is filed as cell-based.
Protocol: Materials and Methods: The radiolabelling was performed using an automated system with inline quality control. Fraction of 68GaCl3 eluate from an organic matrix based 68Ge/68Ga generator, 400-700 MBq in 2 mL, was used to label NOTA/NODAGA/DOTA-derivatised cRGD peptides. Elution, labeling and purification procedures were performed in 20-25 min. […] The affinity of cyclo-RGD peptides to tumor cell-surface receptors was determined by real-time quantification using Ligand Tracer.

T2 sequence (A0A8I6GM68 whole entry): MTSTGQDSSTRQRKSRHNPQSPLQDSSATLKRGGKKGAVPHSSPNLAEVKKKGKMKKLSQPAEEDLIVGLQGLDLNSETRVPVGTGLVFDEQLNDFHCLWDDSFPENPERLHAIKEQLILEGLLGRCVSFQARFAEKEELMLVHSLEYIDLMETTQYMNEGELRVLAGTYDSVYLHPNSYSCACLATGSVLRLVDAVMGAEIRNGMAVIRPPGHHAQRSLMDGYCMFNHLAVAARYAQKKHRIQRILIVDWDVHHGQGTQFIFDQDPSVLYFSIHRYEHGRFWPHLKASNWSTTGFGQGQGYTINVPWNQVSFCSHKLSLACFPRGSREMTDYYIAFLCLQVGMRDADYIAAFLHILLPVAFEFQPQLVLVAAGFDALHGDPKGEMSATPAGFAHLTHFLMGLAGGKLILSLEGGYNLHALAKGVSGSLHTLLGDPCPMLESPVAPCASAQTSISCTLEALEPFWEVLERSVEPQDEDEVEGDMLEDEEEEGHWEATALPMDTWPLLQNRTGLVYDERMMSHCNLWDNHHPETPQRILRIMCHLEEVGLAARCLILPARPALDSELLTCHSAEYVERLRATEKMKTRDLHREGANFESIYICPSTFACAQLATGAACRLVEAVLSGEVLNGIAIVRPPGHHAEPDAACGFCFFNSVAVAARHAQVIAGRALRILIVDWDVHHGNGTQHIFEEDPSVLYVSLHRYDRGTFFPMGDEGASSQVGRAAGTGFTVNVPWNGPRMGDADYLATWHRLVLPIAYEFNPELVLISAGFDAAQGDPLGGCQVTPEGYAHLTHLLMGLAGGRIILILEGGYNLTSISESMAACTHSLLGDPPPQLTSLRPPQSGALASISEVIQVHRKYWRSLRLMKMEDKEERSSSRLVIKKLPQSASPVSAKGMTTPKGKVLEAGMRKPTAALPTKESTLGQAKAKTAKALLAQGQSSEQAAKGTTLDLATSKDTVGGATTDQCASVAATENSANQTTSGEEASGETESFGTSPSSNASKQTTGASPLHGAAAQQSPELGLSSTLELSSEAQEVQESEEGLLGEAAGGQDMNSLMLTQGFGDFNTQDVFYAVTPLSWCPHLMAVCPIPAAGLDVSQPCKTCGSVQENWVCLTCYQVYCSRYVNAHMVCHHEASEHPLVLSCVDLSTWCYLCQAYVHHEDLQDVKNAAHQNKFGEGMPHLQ
T1 sequence (Q01727 whole entry): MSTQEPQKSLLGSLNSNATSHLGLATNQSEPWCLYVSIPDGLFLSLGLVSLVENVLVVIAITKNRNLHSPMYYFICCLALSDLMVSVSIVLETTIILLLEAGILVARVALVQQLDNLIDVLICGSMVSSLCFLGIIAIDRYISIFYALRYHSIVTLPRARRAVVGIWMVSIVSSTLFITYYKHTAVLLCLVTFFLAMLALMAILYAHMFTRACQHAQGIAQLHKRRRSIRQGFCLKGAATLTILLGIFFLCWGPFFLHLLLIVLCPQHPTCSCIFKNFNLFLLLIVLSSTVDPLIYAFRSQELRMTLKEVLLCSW
GRP receptors, sequence (P30550 whole entry): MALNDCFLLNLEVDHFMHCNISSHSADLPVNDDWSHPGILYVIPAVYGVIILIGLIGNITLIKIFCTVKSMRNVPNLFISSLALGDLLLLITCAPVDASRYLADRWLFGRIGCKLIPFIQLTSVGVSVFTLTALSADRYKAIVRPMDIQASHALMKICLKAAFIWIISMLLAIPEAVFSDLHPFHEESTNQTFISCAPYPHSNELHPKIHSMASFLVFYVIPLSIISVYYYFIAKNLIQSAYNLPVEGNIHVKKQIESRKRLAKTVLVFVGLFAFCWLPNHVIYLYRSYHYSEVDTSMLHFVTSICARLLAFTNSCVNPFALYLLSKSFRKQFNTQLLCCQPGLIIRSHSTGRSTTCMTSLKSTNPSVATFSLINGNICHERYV

Molecule `O=C(O)CCc1ccc(O)c(CN(CCN(CC(=O)O)Cc2cc(CCC(=O)NCCCCCC(=O)NCCCC[C@H](NC(=O)N[C@@H](CCC(=O)O)C(=O)O)C(=O)O)ccc2O)CC(=O)O)c1` [68Ga-PSMA-11, Glu-CO-Lys(Ahx)-HBED-CC, metal not drawn] had a urine elimination in data set [1] of more than 70%.

For the molecule `CC(C)[C@H](NC(=O)[C@@H]1CCCN1C(=O)[C@H](CCCNC(=N)N)NC(=O)[C@@H]1CCC(=O)NCCCC[C@H](NC(=O)CCNC(=O)CCCCCNC(=O)[C@@H](N)CS)C(=O)N[C@@H](CCC(=O)O)C(=O)N[C@@H](Cc2c[nH]cn2)C(=O)N[C@H](Cc2ccccc2)C(=O)N[C@@H](CCCNC(=N)N)C(=O)N[C@@H](Cc2c[nH]c3ccccc23)C(=O)N1)C(N)=O` [NAP_NS2, H-Cys-Ahx-βAla^3-c[Lys^4-Glu-His-D-Phe-Arg-Trp-Glu^10]-Arg^11-Pro-Val-NH2] (H-C[Ahx][βAla]KEH[dF]RWERPV-NH2; lactam 4-10), the affinity in [2] corresponds to a Ki of 7.1 ± 2.4 nM.

Consider `C[C@@](Cc1c[nH]c2ccccc12)(NC(=O)Nc1ccc([N+](=O)[O-])cc1)C(=O)NCC1(c2ccc(OCCF)cn2)CCCCC1` [PD-410, (S)-3-(1H-indol-3-yl)-N-[1-[5-(2-fluoroethoxy)pyridin-2-yl]cyclohexylmethyl]-2-methyl-2-[3-(4-nitrophenyl)ureido]propionamide], for which, in [3], the Ki (as a rule, a measure of affinity in units of concentration, obtained from inhibition or displacement) came to 38 ± 2 nM.

Take `COc1ccc(-c2nc3cc(F)ccc3s2)cc1OC` [PMX 610, 2-(3,4-dimethoxyphenyl)-5-fluorobenzothiazole]: the GI50 (as a rule, the concentration that inhibits growth by half) in data set [4] was less than 0.1 nM.

For `O=C(CCCCCCC(=O)Nc1ccccc1)NO` [SAHA, Suberoylanilide hydroxamic acid], the “displacement of [11C]KB631 binding, brain” value in data set [5] was determined as 73%. The “displacement of [11C]KB631 binding, LNCaP” value in data set [6] (LNCaP tumor slices) is reported as 59%. Besides, the “displacement of [11C]KB631 binding, PC3” value in data set [6] (PC3 tumor slices) is recorded as 39%.

`COc1ccc2cc(CCC[18F])ccc2c1` [[18F]Amylovis®, [^18F]-2-(3-fluoropropyl)-6-methoxynaphtalene]: in data set [7], the protein binding result is listed as “No significant protein binding”. For the same molecule, in data set [8] (Balb/C mice, i.v., non-compartmental analysis), the “Plasma T1/2” value came to 37 min. For the same molecule, the “blood brain barrier crossing” value in data set [8] (mice) is “crossed blood brain barrier”.

For `N=C(N)NCCC[C@@H]1NC(=O)[C@H](CCCCNC(=O)CCC(C(=O)O)N2CCN(CC(=O)O)CCN(CC(=O)O)CC2)NC(=O)[C@@H](Cc2ccccc2)NC(=O)[C@H](CC(=O)O)NC(=O)CNC1=O` (stereo partly drawn) [[68Ga]NODAGA-RGD, metal not drawn], in data set [9], the “tolerability in single dose toxicity study” value was “well tolerated in animals”. Moreover, the “side effects in clinical study” value in data set [10] (9 patients with HCC) is recorded as “no severe side effects were observed”. Moreover, the calculated effective dose in data set [10] (human, in vivo) is 21.5±5.4 μSv/MBq. In addition, the metabolic stability result in data set [10] (patient blood (30, 60 min p.i.) and urine (60 min p.i.), HPLC) is “High metabolic stability”. Moreover, the tissue to tissue ratio at […] was 1.6 in [11] (tumour and kidneys, read-out: tumor/kidneys ratio); 5 in [11] (tumour and muscle, read-out: tumor/muscle ratio).

Turning to “DOTA-E-[c(RGDfK)2] (head to tail) [68Ga-DOTA-E-[c(RGDfK)2], 68Ga-labelled dimeric cyclo-RGD peptide]”, the tumor uptake entry in data set [12] is given as “Up to 5.3 % ID/g”. The “retention, from activity in the cells” value in [13] is on record as “up to 58%”.
